Test results taken from patent US7655429B2, “Immunoassays for topiramate” (Seradyn, Inc., priority 2004, dated 2010).

Tests used:
[1] = test system: anti-topiramate antibodies prepared with immunogen (18); assay: ELISA binding inhibition study (avidity), free topiramate versus coated antigen; parameters: species or system Rabbit; Abs: unit not given here
Method: ELISA plates for use in an ELISA assay are prepared in order to study the polyclonal antibody prepared as described in Example 21. As such, various topiramate antigens (16), (19), and (20) are coated on different ELISA plates before being subjected to the anti-topiramate antibody and competing free topiramate. More particularly, the topiramate antigens are diluted in coating buffer, and then added to the wells of ELISA plate. After the ELISA plate is incubated for 60 min at 37° C., the solvent in the coating buffer is decanted and a blocking buffer is added to the plate. The plate is incubated again for 60 min at 37° C., and the solvent in the blocking buffer is decanted from the plate. The ELISA plate is then stored with the blocking agent in the wells at 2-8° C. for up to 1 week. The avidity of the anti-topiramate antibodies prepared with immunogen (17) for topiramate analogs are determined by a binding inhibition study. As such, samples are prepared in 1 mL of PBS at pH 7.4 with 0.1% BSA. A composition having 30% Bmax titer or 50% Bmax titer is used to divide the obtained titer value into approximately half the titer value. Using 30% Bmax, an antibody titer of 1:10,000 is diluted to 1:5,000 during the sample preparation stage. About 50 μL of topiramate at different concentrations or calibrator values, (0, 2, 4, 8, 16, 32 μg/ml) are then applied to a plate as prepared in accordance with Example 22. About 50 μL of the diluted antibody is dispensed into the plate, and the compositions in the plate are mixed for 1 min on a horizontal plate shaker. The plate is characterized by a first row not containing topiramate or anti-topiramate antibody, wherein the first row is used as a negative control. A second row not containing topiramate is used as the positive control. The plate is incubated for 60 min, and washed three times with 250 μL of PBS at pH 7.4 with 0.05% tween. About 125 μL of a diluted second antibody conjugate such as antigens (16), (19), or (20), in PBS at pH 7.4 is added to each well of the plate. Titer is determined experimentally by the plate being incubated for 60 min at 37° C. and washed 3 times with 250 μL PBS, pH 7.4 with 0.05% tween. Subsequently, about 125 μL of ABTS substrate is added to each well of the plate and incubated for 20 min. The avidity of the anti-topiramate antibodies prepared with immunogen (18) for topiramate analogs is determined by a binding inhibition study performed with an experimental protocol substantially similar as in Example 24.

[2] = cited from earlier work
[3] = Antigen 16, Topiramate 2 μg/ml, Rabbit No. 5490
[4] = Antigen 16, Topiramate 2 μg/ml, Rabbit No. 5495
[5] = Antigen 16, Topiramate 4 μg/ml, Rabbit No. 5490
[6] = Antigen 16, Topiramate 4 μg/ml, Rabbit No. 5495
[7] = Antigen 16, Topiramate 8 μg/ml, Rabbit No. 5490
[8] = Antigen 16, Topiramate 8 μg/ml, Rabbit No. 5495
[9] = Antigen 16, Topiramate 16 μg/ml, Rabbit No. 5490
[10] = Antigen 16, Topiramate 16 μg/ml, Rabbit No. 5495
[11] = Antigen 16, Topiramate 32 μg/ml, Rabbit No. 5490
[12] = Antigen 16, Topiramate 32 μg/ml, Rabbit No. 5495
[13] = Antigen 19, Topiramate 2 μg/ml, Rabbit No. 5490
[14] = Antigen 19, Topiramate 2 μg/ml, Rabbit No. 5495
[15] = Antigen 19, Topiramate 4 μg/ml, Rabbit No. 5490
[16] = Antigen 19, Topiramate 4 μg/ml, Rabbit No. 5495
[17] = Antigen 19, Topiramate 8 μg/ml, Rabbit No. 5490
[18] = Antigen 19, Topiramate 8 μg/ml, Rabbit No. 5495
[19] = Antigen 19, Topiramate 16 μg/ml, Rabbit No. 5490
[20] = Antigen 19, Topiramate 16 μg/ml, Rabbit No. 5495
[21] = Antigen 19, Topiramate 32 μg/ml, Rabbit No. 5490
[22] = Antigen 19, Topiramate 32 μg/ml, Rabbit No. 5495
[23] = Antigen 20, Topiramate 2 μg/ml, Rabbit No. 5490
[24] = Antigen 20, Topiramate 2 μg/ml, Rabbit No. 5495
[25] = Antigen 20, Topiramate 4 μg/ml, Rabbit No. 5490
[26] = Antigen 20, Topiramate 4 μg/ml, Rabbit No. 5495
[27] = Antigen 20, Topiramate 8 μg/ml, Rabbit No. 5490
[28] = Antigen 20, Topiramate 8 μg/ml, Rabbit No. 5495
[29] = Antigen 20, Topiramate 16 μg/ml, Rabbit No. 5490
[30] = Antigen 20, Topiramate 16 μg/ml, Rabbit No. 5495
[31] = Antigen 20, Topiramate 32 μg/ml, Rabbit No. 5490
[32] = Antigen 20, Topiramate 32 μg/ml, Rabbit No. 5495
[33] = dose escalation add-on studies, morning serum

Abs [1, 3]: 0.25
B/Bo [1, 3]: 0.35
Abs [1, 4]: 0.25
B/Bo [1, 4]: 0.35
Abs [1, 5]: 0.20
B/Bo [1, 5]: 0.28
Abs [1, 6]: 0.28
B/Bo [1, 6]: 0.39
Abs [1, 7]: 0.15
B/Bo [1, 7]: 0.21
Abs [1, 8]: 0.15
B/Bo [1, 8]: 0.21
Abs [1, 9]: 0.12
B/Bo [1, 9]: 0.17
Abs [1, 10]: 0.12
B/Bo [1, 10]: 0.17
Abs [1, 11]: 0.10
B/Bo [1, 11]: 0.14
Abs [1, 12]: 0.10
B/Bo [1, 12]: 0.14
Abs [1, 13]: 0.10
B/Bo [1, 13]: 0.18
Abs [1, 14]: 0.13
B/Bo [1, 14]: 0.20
Abs [1, 15]: 0.06
B/Bo [1, 15]: 0.10
Abs [1, 16]: 0.08
B/Bo [1, 16]: 0.12
Abs [1, 17]: 0.04
B/Bo [1, 17]: 0.07
Abs [1, 18]: 0.05
B/Bo [1, 18]: 0.08
Abs [1, 19]: 0.03
B/Bo [1, 19]: 0.06
Abs [1, 20]: 0.04
B/Bo [1, 20]: 0.06
Abs [1, 21]: 0.02
B/Bo [1, 21]: 0.04
Abs [1, 22]: 0.02
B/Bo [1, 22]: 0.03
Abs [1, 23]: 0.25
B/Bo [1, 23]: 0.63
Abs [1, 24]: 0.18
B/Bo [1, 24]: 0.53
Abs [1, 25]: 0.24
B/Bo [1, 25]: 0.60
Abs [1, 26]: 0.17
B/Bo [1, 26]: 0.50
Abs [1, 27]: 0.22
B/Bo [1, 27]: 0.55
Abs [1, 28]: 0.16
B/Bo [1, 28]: 0.47
Abs [1, 29]: 0.21
B/Bo [1, 29]: 0.53
Abs [1, 30]: 0.14
B/Bo [1, 30]: 0.41
Abs [1, 31]: 0.20
B/Bo [1, 31]: 0.50
Abs [1, 32]: 0.11
B/Bo [1, 32]: 0.32
SMILES: CC1(C)O[C@@H]2[C@@H](CO[C@@]3(COS(N)(=O)=O)OC(C)(C)O[C@@H]23)O1 [Topiramate, 2,3:4,5-di-O-isopropylidene-beta-D-fructopyranose sulfamate]
serum concentration with reduction in seizure control [2, 33]: greater than 75 μmol/L
serum concentration with significant increase in side effects [2, 33]: > 60 µM
systemic topiramate concentrations ([2]; patients receiving considerably higher doses, up to 2000 mg): ≤ 80 µmol/L
